Tests used:
[1] = target: T1, HEWL amyloid fibrils (Gallus gallus, UniProt P00698); assay: Thioflavin T fluorescence assay of HEWL amyloid fibrillation; format: biochemical, hen; conditions: HEWL 70 µM, complex 10 µM; for effect on amyloid fibrillation of HEWL (ThT fluorescence): pH 2.0, 140 min incubation
T1 construct: whose 129 amino acid residues are linked together by four disulfide bridges to form a single polypeptide chain; purchased Sigma-Aldrich L6876; host or cells: hen egg white (natural source, per the protein's name)
Description: To prepare HEWL amyloid fibrils, a solution of the protein (5 ml, 70 µM) was prepared in 100 mM PBS, and the pH adjusted to 2.0 using hydrochloric acid. The solution was then incubated in a shaker incubator bath at 450 rpm and 58°C for 140 min. To investigate the effect of the diacetylcurcumin-based metal complexes on HEWL amyloid fibrillation, three separate samples, each containing HEWL (70 µM) and one of the metal complexes of diacetylcurcumin (10 µM), were prepared and incubated under the above conditions.
For ThT assay, a 17 µl volume of the incubated HEWL (70 µM) samples was added to 983 µl of ThT solution for the final HEWL and ThT concentrations of 1.2 µM and 20 µM, respectively. ThT spectra containing the incubated HEWL/metal complexes were recorded 5 min after recording the spectrum of ThT solution as control solution. All spectra were recorded using a Varian Cary Eclipse fluorescence spectrophotometer at 25°C. ThT solution was excited with a 440 nm wavelength and emission fluorescence spectra were recorded in the wavelength range of 450–600 nm.
Enhancement of ThT fluorescence intensity upon its rapid and strong binding to the cross β-sheet structure of amyloid fibrils is important evidence to confirm the amyloid fibril formation of proteins. The inhibitory activities of Ga(DAC)3, In(DAC)3 and VO(DAC)2 complexes on the amyloid fibrillation process of HEWL were explored by ThT fluorescence assay over 140 min period of incubation at pH 2.0. The kinetics of the fibrillation process in the absence and presence of the considered complexes is depicted in figure 4a.
To estimate the lag time and apparent rate constant for growth of fibrils, the following equation was employed on the ThT fluorescence data: F=Fmin+Fmax/1+e^−(t−t0/τ),
where F is the fluorescence intensity in t, Fmin and Fmax are fluorescence intensities in initial time and saturation phase, respectively, t is incubation time and t0 is required time to get 50% of maximal fluorescence intensity. The apparent rate constant, kapp, is given by 1/τ and the lag time is approximated by t0 − 2τ. […]

[2] = system: mouse lymphoma cells; design: method as in PMID 16171869; conditions: read-out: IC50 cytotoxicity; cited from earlier work
[3] = target: T2, hen egg white lysozyme (HEWL) (Gallus gallus, UniProt P00698); assay: Intrinsic fluorescence quenching of HEWL (Stern-Volmer, double logarithmic and van't Hoff analysis); format: binding; conditions: for KSV (Stern-Volmer quenching constant): HEWL 3 µM; for kq (bimolecular quenching rate constant): kq = KSV/τ0, τ0 10^−8 s; for blue shift of HEWL emission maximum on quenching: excitation 295 nm, emission maximum 345 nm; for fluorescence quenching mechanism: from KSV versus temperature and kq; for main forces / modes of interaction stabilizing the bioconjugate: from signs of ΔH^0 and ΔS^0; for binding constant, order of magnitude: summary of table 1; for ΔH^0 (enthalpy change of binding) / ΔS^0 (entropy change of binding): van't Hoff plot over 293–308 K
T2 construct: whose 129 amino acid residues are linked together by four disulfide bridges to form a single polypeptide chain; purchased Sigma-Aldrich L6876; host or cells: hen egg white (natural source, per the protein's name)
Description: The intrinsic fluorescence spectra of HEWL (3 µM) in the absence and presence of Ga(DAC)3, In(DAC)3 and VO(DAC)2 complexes were collected using a Varian Cary Eclipse fluorescence spectrophotometer equipped with a 10 mm quartz cell by adjusting the excitation wavelength to 295 nm and setting the width of both excitation and emission slits at 5 nm. After adding the mentioned concentrations of the metal complexes of diacetylcurcumin to HEWL solution, the samples were scanned in the wavelength range of 300–500 nm. Corrections were made for the inner filter effect on the fluorescence spectra according to the following equation: Fcor=Fobs×10^(Aex+Aem)/2, where Fcor is corrected fluorescence intensity, Fobs is the observed (uncorrected) fluorescence intensity, Aex is the absorbance at the fluorescence excitation wavelength and Aem is the absorbance at the selected fluorescence emission wavelength.
The fluorescence quenching process of HEWL in the presence of three metal complexes of diacetylcurcumin can be quantified according to the well-known Stern-Volmer equation:3.1 F0/F=1+KSV[Q]=1+kqτ0[Q],
where F0 and F represent the intrinsic emission intensities of HEWL fluorophores, respectively, in the absence and presence of the metal complexes of diacetylcurcumin, and [Q] is the molar concentration of quencher. KSV, kq and τ0 denote the Stern-Volmer quenching constant, bimolecular quenching rate constant, and the average lifetime of fluorophore without quencher, respectively. The value of KSV, as a parameter of the sensitivity of the fluorophore to a quencher, can be estimated from the slope of the linear plot of F0/F as a function of [Q] (figure 2d,e,f; electronic supplementary material, figure S1). To obtain more accurate quantification of fluorescence data, the total area of the emission fluorescence peaks (S0 and S) was applied instead of the emission fluorescence intensities (F0 and F). The fluorescence quenching phenomenon can be generally divided into two distinct classes: static quenching and dynamic quenching. Owing to the reciprocal and direct correlations between the KSV parameter and temperature, respectively, for static and dynamic quenching, the observed trend in the KSV value versus temperature can be used to distinguish these mechanisms from each other. In dynamic quenching, an increase in temperature leads to faster diffusion of molecules by which weakly bound nonfluorescent complexes are further dissociated, and the value of KSV increases. From the data recorded in table 1, it can be seen that the KSV value of HEWL/Ga(DAC)3 and HEWL/In(DAC)3 systems decreases as temperature increases, while it increases with increasing temperature for the HEWL/VO(DAC)2 system. […] Considering a lifetime value of 10^−8 s for the native fluorophores, [27] the equation kq = KSV/τ0 gives the kq values greater than the diffusion-limited quenching value of 2.0 × 10 ^+ 10 M^−1 s^−1 for all systems.
Assuming that all the binding sites of HEWL are identical and independent and an equilibrium interaction is established between HEWL and each of the metal complexes of diacetylcurcumin, the fluorescence quenching process can be further analysed by the following double logarithmic equation:3.2 log(F0−F/F)=logKb+nlog[Q], where Kb and n represent the binding constant and number of binding sites on each HEWL molecule, respectively. Plotting log[(F0 − F)/F] versus log[Q] produces a straight line whose slope and intercept can be used respectively to estimate the values of n and Kb (electronic supplementary material, figures S2A, S2B, S2C and S3). […] In other words, the resulting bioconjugates are the product of the interaction between HEWL and the metal complexes of diacetylcurcumin with a 1 : 1 stoichiometry. […]

T1 sequence (P00698 19-147): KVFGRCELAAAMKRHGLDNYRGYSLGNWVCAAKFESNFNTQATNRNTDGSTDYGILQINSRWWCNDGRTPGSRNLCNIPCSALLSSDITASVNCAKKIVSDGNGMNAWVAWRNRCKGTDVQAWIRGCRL
T2 sequence (P00698 19-147): as above

## COc1cc(/C=C/C(=O)C=C([O-])/C=C/c2ccc(OC(C)=O)c(OC)c2)ccc1OC(C)=O.COc1cc(/C=C/C(=O)C=C([O-])/C=C/c2ccc(OC(C)=O)c(OC)c2)ccc1OC(C)=O.[O]=[V+2] [VO(DAC)2, vanadyl diacetylcurcumin]
[1]
  effect on amyloid fibrillation of HEWL (ThT fluorescence): highest inhibitory effect
[2]
  IC50: 7 to 10 µM
[3]; T 293 K
  n (number of binding sites on each HEWL molecule): (1.35 ± 0.04)
  ΔG^0 (Gibbs free energy change of binding): -8.217 ± 0.858 kcal/mol
  KSV (Stern-Volmer quenching constant): (2.70 ± 0.02) × 10^+4 M^−1
  kq (bimolecular quenching rate constant): (2.70 ± 0.02) × 10^+12 M^−1 s^−1
[3]; T 298 K
  n (number of binding sites on each HEWL molecule): (1.15 ± 0.03)
  ΔG^0 (Gibbs free energy change of binding): -6.993 ± 0.858 kcal/mol
  KSV (Stern-Volmer quenching constant): (2.70 ± 0.04) × 10^+4 M^−1
  kq (bimolecular quenching rate constant): (2.70 ± 0.04) × 10^+12 M^−1 s^−1
[3]; T 303 K
  n (number of binding sites on each HEWL molecule): (0.93 ± 0.02)
  ΔG^0 (Gibbs free energy change of binding): -5.767 ± 0.858 kcal/mol
  KSV (Stern-Volmer quenching constant): (2.78 ± 0.03) × 10^+4 M^−1
  kq (bimolecular quenching rate constant): (2.78 ± 0.03) × 10^+12 M^−1 s^−1
[3]; T 308 K
  n (number of binding sites on each HEWL molecule): (0.75 ± 0.04)
  ΔG^0 (Gibbs free energy change of binding): -4.543 ± 0.858 kcal/mol
  KSV (Stern-Volmer quenching constant): (2.80 ± 0.02) × 10^+4 M^−1
  kq (bimolecular quenching rate constant): (2.80 ± 0.02) × 10^+12 M^−1 s^−1
[3]
  blue shift of HEWL emission maximum on quenching: 2 nm
  fluorescence quenching mechanism: dual mechanism, including both static and dynamic quenching
  main forces / modes of interaction stabilizing the bioconjugate: van der Waals interactions and hydrogen bonds
  binding constant, order of magnitude: 10^+6 to 10^+3 M^−1
  ΔH^0 (enthalpy change of binding): -79.988 ± 0.246 kcal/mol
  ΔS^0 (entropy change of binding): −1024.87 ± 3.44 J mol^−1 K^−1

## COc1cc(C=CC(=O)C=C([O-])C=Cc2ccc(OC(C)=O)c(OC)c2)ccc1OC(C)=O.COc1cc(C=CC(=O)C=C([O-])C=Cc2ccc(OC(C)=O)c(OC)c2)ccc1OC(C)=O.COc1cc(C=CC(=O)C=C([O-])C=Cc2ccc(OC(C)=O)c(OC)c2)ccc1OC(C)=O.[In+3] [In(DAC)3, indium diacetylcurcumin]
[1]; pH 2.0
  effect on lag time and t0 of fibrillation: significant increase in the lag time and t0
[1]
  effect on amyloid fibrillation of HEWL (ThT fluorescence): considerable delaying effect
[2]
  IC50: 20 to 25 µM
[3]; T 293 K
  n (number of binding sites on each HEWL molecule): (1.26 ± 0.01)
  ΔG^0 (Gibbs free energy change of binding): -8.368 ± 0.0024 kcal/mol
  KSV (Stern-Volmer quenching constant): (0.10 ± 0.00) × 10^+6 M^−1
  kq (bimolecular quenching rate constant): (0.10 ± 0.00) × 10^+14 M^−1 s^−1
[3]; T 303 K
  n (number of binding sites on each HEWL molecule): (1.25 ± 0.04)
  ΔG^0 (Gibbs free energy change of binding): -8.65 ± 0.0024 kcal/mol
  KSV (Stern-Volmer quenching constant): (9.61 ± 0.10) × 10^+5 M^−1
  kq (bimolecular quenching rate constant): (9.61 ± 0.10) × 10^+13 M^−1 s^−1
[3]; T 308 K
  n (number of binding sites on each HEWL molecule): (1.25 ± 0.02)
  ΔG^0 (Gibbs free energy change of binding): -8.788 ± 0.0024 kcal/mol
  KSV (Stern-Volmer quenching constant): (1.04 ± 0.02) × 10^+5 M^−1
  kq (bimolecular quenching rate constant): (1.04 ± 0.02) × 10^+13 M^−1 s^−1
[3]
  blue shift of HEWL emission maximum on quenching: 4 nm
  fluorescence quenching mechanism: static mechanism
  main forces / modes of interaction stabilizing the bioconjugate: electrostatic interactions
  binding constant, order of magnitude: 10^+6 M^−1
  ΔH^0 (enthalpy change of binding): -0.148 ± 0 kcal/mol
  ΔS^0 (entropy change of binding): 117.38 ± 0.01 J mol^−1 K^−1

From article PMC10645073, “Interaction of gallium, indium and vanadyl diacetylcurcumin complexes with lysozyme: mechanistic aspects and evaluation of antiamyloidogenic activity” (Royal Society Open Science, 2023)
